From patent US12442042B2, “Epigenomic profiling reveals the somatic promoter landscape of primary gastric adenocarcinoma” (AGENCY FOR SCIENCE, TECHNOLOGY AND RESEARCH, priority 2016, dated 2025)

Tests used:
IM95 GC cells = test: EZH2 inhibition: RNA-seq of GSK126-treated IM95 cells at promoter loci; type: cell-based, human
Procedure: IM95 were treated with GSK126 (Selleck, USA), a selective EZH2 inhibitor, at a concentration of 5 μM. Cell proliferation was monitored in 96-well plates post-treatment with GSK126 using the CellTiter-Glo® Luminescent Cell Viability Assay (Promega) for three independent experiments. For RNA-seq analysis, total RNA was extracted using the Qiagen RNAeasy mini kit according to manufacturer's instructions. Cells were treated with GSK126 (Selleck, USA; dissolved in DMSO) at a concentration of 5 μM. Control cells were treated with the same concentration of DMSO (0.1%). RNAseq differential analysis for promoter loci was carried out using edgeR on read counts mapping to H3K4me3 regions estimated using featureCounts. RNAseq gene level differential analysis was performed using cuffdiff2.2.1.

PBMCs = test: EpiMAX assay: cytokine multiplex on supernatants of PBMCs stimulated with peptide pools; type: cell-based, human
Procedure: A set of peptides for 15 representative alternative promoters was purchased from GenScript (GenScript). Peptide sequences and composition of peptide pools for each alternative promoter are described in Table 3. Control peptide pools for human Actin were purchased from JPT (PM-ACTS, PepMix™ Human (Actin) JPT). Peripheral blood mononuclear cells (PBMCs) were obtained from 9 healthy volunteers of whom 8 PBMC samples were HLA-typed (Table 3).
PBMCs were labelled with 1 μM CFSE (Life Technologies, Thermo Fisher Scientific) and cultured at a density of 200,000 cells per well in complete culture medium (cRPMI comprising RPMI 1640 medium (Gibco, Thermo Fisher Scientific), 15 mM HEPES (Gibco), 1% non-essential amino acid (Gibco), 1 mM sodium pyruvate (Gibco), 1% penicillin/streptomycin (Gibco), 2 mM L-glutamine (Gibco), 50 μM β2-mercaptoethanol (Sigma, Merck), and 10% heat-inactivated FCS (Hyclone)) for 5 days. Individual peptide pools of each alternative promoter were added at the start of the culture at a concentration of 1 μg/ml for each peptide. At the end of day 5, cells were stained with LIVE/DEAD® fixable near-IR dead cell stain kit (Life Technologies), and labelled with CD4-BUV737 (BD), CD8-PacificBlue (BD), CD3-PE (BioLegend), CD19-PE/TexasRed (Beckman), and CD56-APC (BD). Analysis of T cell proliferation by CFSE dilution was performed by flow cytometry using a LSRII (BD). In addition, magnetic bead-based cytokine multiplex analysis (human cytokine panel 1, Millipore, Merck) was performed on cell culture supernatants to measure secreted cytokine levels.

[1] = Donor 1 PBMCs stimulated with peptide pool
[2] = Donor 2 PBMCs stimulated with peptide pool
[3] = Donor 3 PBMCs stimulated with peptide pool
[4] = Donor 4 PBMCs stimulated with peptide pool
[5] = Donor 5 PBMCs stimulated with peptide pool
[6] = Donor 6 PBMCs stimulated with peptide pool
[7] = Donor 7 PBMCs stimulated with peptide pool
[8] = Donor 8 PBMCs stimulated with peptide pool
[9] = Donor 9 PBMCs stimulated with peptide pool

CC[C@H](C)n1cc(C)c2c(C(=O)NCc3c(C)cc(C)[nH]c3=O)cc(-c3ccc(N4CCNCC4)nc3)cc21 [GSK126]
deregulated promoters mapping to somatic promoters lost in primary GC that were reactivated (IM95 GC cells; 78/87, FC>=2, qval<0.1): 89.6%
gene sets of genes upregulated upon EZH2 inhibition (IM95 GC cells; Day 6 and 9, RNA-seq): enriched in previously identified PRC2 target gene sets
OR, somatic promoters vs all GSK126 regulated genes (IM95 GC cells; Fisher Test, P<0.001): 9.21
OR, somatic promoters vs unaltered promoters changing expression (IM95 GC cells; Fisher Test, P<0.001): 1.46
promoters deregulated in total (IM95 GC cells; GSK126 5 μM, Day 6 and 9, RNA-seq): 2134
proportion of somatic promoters deregulated (IM95 GC cells; GSK126 5 μM, RNA-seq): 12.8%
proportion of unaltered promoters exhibiting deregulation (IM95 GC cells; GSK126 5 μM, RNA-seq): 8.8%
somatic promoters deregulated (of 1959 promoters exhibiting somatic alterations in primary GCs) (IM95 GC cells; GSK126 5 μM, RNA-seq): 251
total proportion of genes (as defined by Gencode) regulated (IM95 GC cells; GSK126 5 μM, RNA-seq): 1.5%
expression at PSCA TSS (lost somatic promoter) (IM95 GC cells; day 6 (D6) and Day 9 (D9)): Gain of expression
expression at SLC9A9 TSS (lost somatic promoter) (IM95 GC cells; day 6 (D6) and Day 9 (D9)): Gain of expression
expression at alternative promoter ESRRG (lost promoter activity) (IM95 GC cells; day 6 (D6) and Day 9 (D9)): Gain of expression

Actin
Analyte concentration GM-CSF (PBMCs; [1]): 19.57 pg/mL
Analyte concentration IFNg (PBMCs; [1]): 147.18 pg/mL
Analyte concentration IL-2 (PBMCs; [1]): 34.21 pg/mL
Analyte concentration IL-3 (PBMCs; [1]): 1.46 pg/mL
Analyte concentration IL-4 (PBMCs; [1]): 0.03 pg/mL
Analyte concentration IL-7 (PBMCs; [1]): 0.085 pg/mL
Analyte concentration IL-9 (PBMCs; [1]): 1.22 pg/mL
Analyte concentration IL-10 (PBMCs; [1]): 10.1 pg/mL
Analyte concentration IL-13 (PBMCs; [1]): 14.2 pg/mL
Analyte concentration IL-15 (PBMCs; [1]): 0.925 pg/mL
Analyte concentration IL-17A (PBMCs; [1]): 0.02 pg/mL
Analyte concentration TNFa (PBMCs; [1]): 101.44 pg/mL
Analyte concentration sCD40L (PBMCs; [1]): 0.78 pg/mL
Fold change of total cytokine response (normalized against Actin control) (PBMCs; [1]): 1.00
Total analytes (PBMCs; [1]): 331.40 pg/mL
Analyte concentration GM-CSF (PBMCs; [2]): 15.58 pg/mL
Analyte concentration IFNg (PBMCs; [2]): 7.71 pg/mL
Analyte concentration IL-2 (PBMCs; [2]): 11.28 pg/mL
Analyte concentration IL-3 (PBMCs; [2]): 0.76 pg/mL
Analyte concentration IL-4 (PBMCs; [2]): 0.03 pg/mL
Analyte concentration IL-7 (PBMCs; [2]): 1.73 pg/mL
Analyte concentration IL-9 (PBMCs; [2]): 1.22 pg/mL
Analyte concentration IL-10 (PBMCs; [2]): 5.29 pg/mL
Analyte concentration IL-13 (PBMCs; [2]): 13.75 pg/mL
Analyte concentration IL-15 (PBMCs; [2]): 0.925 pg/mL
Analyte concentration IL-17A (PBMCs; [2]): 0.02 pg/mL
Analyte concentration TNFa (PBMCs; [2]): 9.18 pg/mL
Analyte concentration sCD40L (PBMCs; [2]): 1.81 pg/mL
Fold change of total cytokine response (normalized against Actin control) (PBMCs; [2]): 1.00
Total analytes (PBMCs; [2]): 69.29 pg/mL
Analyte concentration GM-CSF (PBMCs; [3]): 56.66 pg/mL
Analyte concentration IFNg (PBMCs; [3]): 60.86 pg/mL
Analyte concentration IL-2 (PBMCs; [3]): 13.4 pg/mL
Analyte concentration IL-3 (PBMCs; [3]): 0.56 pg/mL
Analyte concentration IL-4 (PBMCs; [3]): 4.53 pg/mL
Analyte concentration IL-7 (PBMCs; [3]): 0.085 pg/mL
Analyte concentration IL-9 (PBMCs; [3]): 1.22 pg/mL
Analyte concentration IL-10 (PBMCs; [3]): 2.56 pg/mL
Analyte concentration IL-13 (PBMCs; [3]): 5.96 pg/mL
Analyte concentration IL-15 (PBMCs; [3]): 0.925 pg/mL
Analyte concentration IL-17A (PBMCs; [3]): 2.89 pg/mL
Analyte concentration TNFa (PBMCs; [3]): 20.69 pg/mL
Analyte concentration sCD40L (PBMCs; [3]): 0.01 pg/mL
Fold change of total cytokine response (normalized against Actin control) (PBMCs; [3]): 1.00
Total analytes (PBMCs; [3]): 170.35 pg/mL
Analyte concentration GM-CSF (PBMCs; [4]): 0.66 pg/mL
Analyte concentration IFNg (PBMCs; [4]): 0.01 pg/mL
Analyte concentration IL-2 (PBMCs; [4]): 1.27 pg/mL
Analyte concentration IL-3 (PBMCs; [4]): 0.005 pg/mL
Analyte concentration IL-4 (PBMCs; [4]): 0.03 pg/mL
Analyte concentration IL-7 (PBMCs; [4]): 0.085 pg/mL
Analyte concentration IL-9 (PBMCs; [4]): 1.22 pg/mL
Analyte concentration IL-10 (PBMCs; [4]): 0.18 pg/mL
Analyte concentration IL-13 (PBMCs; [4]): 0.99 pg/mL
Analyte concentration IL-15 (PBMCs; [4]): 0.925 pg/mL
Analyte concentration IL-17A (PBMCs; [4]): 0.02 pg/mL
Analyte concentration TNFa (PBMCs; [4]): 1.49 pg/mL
Analyte concentration sCD40L (PBMCs; [4]): 0.01 pg/mL
Fold change of total cytokine response (normalized against Actin control) (PBMCs; [4]): 1.00
Total analytes (PBMCs; [4]): 6.90 pg/mL
Analyte concentration GM-CSF (PBMCs; [5]): 0.66 pg/mL
Analyte concentration IFNg (PBMCs; [5]): 1.65 pg/mL
Analyte concentration IL-2 (PBMCs; [5]): 1.4 pg/mL
Analyte concentration IL-3 (PBMCs; [5]): 0.005 pg/mL
Analyte concentration IL-4 (PBMCs; [5]): 0.03 pg/mL
Analyte concentration IL-7 (PBMCs; [5]): 0.085 pg/mL
Analyte concentration IL-9 (PBMCs; [5]): 1.22 pg/mL
Analyte concentration IL-10 (PBMCs; [5]): 5.5 pg/mL
Analyte concentration IL-13 (PBMCs; [5]): 1.44 pg/mL
Analyte concentration IL-15 (PBMCs; [5]): 0.925 pg/mL
Analyte concentration IL-17A (PBMCs; [5]): 0.02 pg/mL
Analyte concentration TNFa (PBMCs; [5]): 3.08 pg/mL
Analyte concentration sCD40L (PBMCs; [5]): 0.01 pg/mL
Fold change of total cytokine response (normalized against Actin control) (PBMCs; [5]): 1.00
Total analytes (PBMCs; [5]): 16.03 pg/mL
Analyte concentration GM-CSF (PBMCs; [6]): 18.18 pg/mL
Analyte concentration IFNg (PBMCs; [6]): 135.48 pg/mL
Analyte concentration IL-2 (PBMCs; [6]): 11.03 pg/mL
Analyte concentration IL-3 (PBMCs; [6]): 0.5 pg/mL
Analyte concentration IL-4 (PBMCs; [6]): 0.03 pg/mL
Analyte concentration IL-7 (PBMCs; [6]): 0.085 pg/mL
Analyte concentration IL-9 (PBMCs; [6]): 1.22 pg/mL
Analyte concentration IL-10 (PBMCs; [6]): 4.66 pg/mL
Analyte concentration IL-13 (PBMCs; [6]): 8.77 pg/mL
Analyte concentration IL-15 (PBMCs; [6]): 0.925 pg/mL
Analyte concentration IL-17A (PBMCs; [6]): 2.22 pg/mL
Analyte concentration TNFa (PBMCs; [6]): 38.39 pg/mL
Analyte concentration sCD40L (PBMCs; [6]): 0.01 pg/mL
Fold change of total cytokine response (normalized against Actin control) (PBMCs; [6]): 1.00
Total analytes (PBMCs; [6]): 222.13 pg/mL
Analyte concentration GM-CSF (PBMCs; [7]): 3.31 pg/mL
Analyte concentration IFNg (PBMCs; [7]): 6.53 pg/mL
Analyte concentration IL-2 (PBMCs; [7]): 0.77 pg/mL
Analyte concentration IL-3 (PBMCs; [7]): 0.01 pg/mL
Analyte concentration IL-4 (PBMCs; [7]): 0.03 pg/mL
Analyte concentration IL-7 (PBMCs; [7]): 2.29 pg/mL
Analyte concentration IL-9 (PBMCs; [7]): 1.22 pg/mL
Analyte concentration IL-10 (PBMCs; [7]): 7.7 pg/mL
Analyte concentration IL-13 (PBMCs; [7]): 0.14 pg/mL
Analyte concentration IL-15 (PBMCs; [7]): 0.925 pg/mL
Analyte concentration IL-17A (PBMCs; [7]): 0.02 pg/mL
Analyte concentration TNFa (PBMCs; [7]): 48.35 pg/mL
Analyte concentration sCD40L (PBMCs; [7]): 0.01 pg/mL
Fold change of total cytokine response (normalized against Actin control) (PBMCs; [7]): 1.00
Total analytes (PBMCs; [7]): 71.31 pg/mL
Analyte concentration GM-CSF (PBMCs; [8]): 0.66 pg/mL
Analyte concentration IFNg (PBMCs; [8]): 1.12 pg/mL
Analyte concentration IL-2 (PBMCs; [8]): 1.9 pg/mL
Analyte concentration IL-3 (PBMCs; [8]): 0.22 pg/mL
Analyte concentration IL-4 (PBMCs; [8]): 0.03 pg/mL
Analyte concentration IL-7 (PBMCs; [8]): 0.085 pg/mL
Analyte concentration IL-9 (PBMCs; [8]): 1.22 pg/mL
Analyte concentration IL-10 (PBMCs; [8]): 3.61 pg/mL
Analyte concentration IL-13 (PBMCs; [8]): 0.03 pg/mL
Analyte concentration IL-15 (PBMCs; [8]): 0.925 pg/mL
Analyte concentration IL-17A (PBMCs; [8]): 0.02 pg/mL
Analyte concentration TNFa (PBMCs; [8]): 2.64 pg/mL
Analyte concentration sCD40L (PBMCs; [8]): 0.58 pg/mL
Fold change of total cytokine response (normalized against Actin control) (PBMCs; [8]): 1.00
Total analytes (PBMCs; [8]): 13.04 pg/mL
Analyte concentration GM-CSF (PBMCs; [9]): 0.66 pg/mL
Analyte concentration IFNg (PBMCs; [9]): 3.49 pg/mL
Analyte concentration IL-2 (PBMCs; [9]): 0.77 pg/mL
Analyte concentration IL-3 (PBMCs; [9]): 0.36 pg/mL
Analyte concentration IL-4 (PBMCs; [9]): 0.03 pg/mL
Analyte concentration IL-7 (PBMCs; [9]): 2.01 pg/mL
Analyte concentration IL-9 (PBMCs; [9]): 1.22 pg/mL
Analyte concentration IL-10 (PBMCs; [9]): 2.13 pg/mL
Analyte concentration IL-13 (PBMCs; [9]): 1.05 pg/mL
Analyte concentration IL-15 (PBMCs; [9]): 0.925 pg/mL
Analyte concentration IL-17A (PBMCs; [9]): 0.58 pg/mL
Analyte concentration TNFa (PBMCs; [9]): 56.18 pg/mL
Analyte concentration sCD40L (PBMCs; [9]): 0.01 pg/mL
Fold change of total cytokine response (normalized against Actin control) (PBMCs; [9]): 1.00
Total analytes (PBMCs; [9]): 69.42 pg/mL
